Among the data in ChEMBL document CHEMBL6092154, “Design, synthesis, and evaluation of a novel TRAIL-activated HDAC6 inhibitor for the treatment of pulmonary fibrosis” (Bioorg Med Chem, 2024) are inhibition, IC50 and Activity values, retold here.

Calls of active or inactive are those of the source. The rule behind the calls is not given here.

For data set [1], the target named is T1, Protein deacetylase HDAC6 (Mus musculus) (UniProt Q9Z2V5).
T1 sequence (whole entry): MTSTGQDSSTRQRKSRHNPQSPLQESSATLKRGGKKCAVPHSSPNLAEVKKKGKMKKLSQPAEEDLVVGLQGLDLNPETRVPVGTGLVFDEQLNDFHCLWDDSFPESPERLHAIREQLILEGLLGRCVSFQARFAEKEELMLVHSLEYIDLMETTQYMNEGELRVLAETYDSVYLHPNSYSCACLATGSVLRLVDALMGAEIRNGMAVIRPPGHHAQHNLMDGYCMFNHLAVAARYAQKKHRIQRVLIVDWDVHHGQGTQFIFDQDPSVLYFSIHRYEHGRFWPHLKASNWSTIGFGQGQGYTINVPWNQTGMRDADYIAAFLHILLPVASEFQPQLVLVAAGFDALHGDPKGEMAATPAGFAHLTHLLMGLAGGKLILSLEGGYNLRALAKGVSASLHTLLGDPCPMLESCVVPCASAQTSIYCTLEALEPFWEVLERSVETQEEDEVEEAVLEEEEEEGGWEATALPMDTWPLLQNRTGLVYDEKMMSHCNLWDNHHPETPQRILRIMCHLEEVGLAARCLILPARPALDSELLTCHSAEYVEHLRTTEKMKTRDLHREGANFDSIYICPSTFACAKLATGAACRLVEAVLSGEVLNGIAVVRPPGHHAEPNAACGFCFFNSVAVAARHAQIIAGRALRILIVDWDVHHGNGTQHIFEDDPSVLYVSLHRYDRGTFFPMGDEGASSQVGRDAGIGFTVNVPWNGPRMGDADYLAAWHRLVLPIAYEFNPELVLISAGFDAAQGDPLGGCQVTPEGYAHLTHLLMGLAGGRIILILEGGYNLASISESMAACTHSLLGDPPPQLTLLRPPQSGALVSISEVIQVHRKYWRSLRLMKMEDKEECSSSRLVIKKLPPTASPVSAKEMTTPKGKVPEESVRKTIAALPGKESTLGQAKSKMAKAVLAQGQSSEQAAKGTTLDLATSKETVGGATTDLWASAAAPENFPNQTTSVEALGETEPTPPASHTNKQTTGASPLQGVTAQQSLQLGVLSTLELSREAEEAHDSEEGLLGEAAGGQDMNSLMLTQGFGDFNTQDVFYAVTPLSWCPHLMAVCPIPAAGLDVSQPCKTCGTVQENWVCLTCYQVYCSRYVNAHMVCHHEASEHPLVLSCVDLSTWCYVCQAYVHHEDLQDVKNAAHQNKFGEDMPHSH
Briefly: In vivo inhibition of HDAC6 in bleomycin-induced idiopathic pulmonary fibrosis C57BL/6J mouse model assessed as increase in acetylated histone H4 level in lung at 50 mg/kg, ig administered via gavage and measured on day 14 by western blot analysis. Type of data set: functional, organism-based. As to conditions: time 14.0 day. A general note: Immunoblotting shows a protein as a band on a membrane.

A further data set has as its system NIH3T3. Briefly: Antiproliferative activity against mouse NIH/3T3 cells assessed as inhibition of cell growth incubated for 24 to 48 hrs by CCK8 assay. Type of data set: functional, cell-based. On the technique in general: Tetrazolium assays rely on reduction of a dye to a coloured formazan, in cell work by metabolically active cells.
Data set [2] has as its target T2, Protein deacetylase HDAC6 (Homo sapiens, UniProt Q9UBN7).
T2 sequence (Q9UBN7 whole entry): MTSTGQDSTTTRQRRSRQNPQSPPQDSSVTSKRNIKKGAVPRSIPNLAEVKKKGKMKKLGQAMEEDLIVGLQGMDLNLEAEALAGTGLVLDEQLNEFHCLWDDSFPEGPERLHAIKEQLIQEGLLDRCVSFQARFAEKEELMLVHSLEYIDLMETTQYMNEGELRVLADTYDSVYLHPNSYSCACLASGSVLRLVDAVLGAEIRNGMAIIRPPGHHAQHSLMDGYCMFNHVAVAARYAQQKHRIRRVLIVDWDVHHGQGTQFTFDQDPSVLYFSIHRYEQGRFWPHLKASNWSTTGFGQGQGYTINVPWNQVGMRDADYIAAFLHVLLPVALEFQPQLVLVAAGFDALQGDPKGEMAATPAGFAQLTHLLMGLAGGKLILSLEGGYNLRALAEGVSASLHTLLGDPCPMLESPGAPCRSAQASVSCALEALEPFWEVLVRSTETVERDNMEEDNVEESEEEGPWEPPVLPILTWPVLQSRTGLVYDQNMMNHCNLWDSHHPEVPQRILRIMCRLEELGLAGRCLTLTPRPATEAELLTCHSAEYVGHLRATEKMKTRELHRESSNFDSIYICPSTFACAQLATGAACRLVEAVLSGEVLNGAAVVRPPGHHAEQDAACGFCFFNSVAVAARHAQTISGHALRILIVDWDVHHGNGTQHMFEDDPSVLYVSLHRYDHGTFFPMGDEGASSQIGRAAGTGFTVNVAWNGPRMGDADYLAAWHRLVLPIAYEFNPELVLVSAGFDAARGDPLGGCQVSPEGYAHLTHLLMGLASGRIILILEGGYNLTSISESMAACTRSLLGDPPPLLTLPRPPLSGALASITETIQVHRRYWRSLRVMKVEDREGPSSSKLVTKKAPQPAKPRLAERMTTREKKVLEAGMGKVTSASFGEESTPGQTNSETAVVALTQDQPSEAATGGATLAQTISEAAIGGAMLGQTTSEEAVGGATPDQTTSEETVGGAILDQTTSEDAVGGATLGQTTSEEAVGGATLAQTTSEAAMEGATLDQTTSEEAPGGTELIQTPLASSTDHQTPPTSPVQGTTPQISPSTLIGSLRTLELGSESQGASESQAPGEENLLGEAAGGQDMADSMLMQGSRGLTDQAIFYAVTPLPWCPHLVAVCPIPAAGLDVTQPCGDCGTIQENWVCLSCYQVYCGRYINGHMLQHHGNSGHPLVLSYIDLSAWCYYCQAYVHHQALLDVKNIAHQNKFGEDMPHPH
Description: Inhibition of HDAC6 (unknown origin) incubated for 30 mins by fluorometric analysis.

The next data set deals with Histone deacetylase 2 (Homo sapiens, UniProt Q92769). Description: Inhibition of HDAC2 (unknown origin) at 1 uM incubated for 30 mins by fluorometric analysis.
Chain of Histone deacetylase 2 (Q92769 whole entry): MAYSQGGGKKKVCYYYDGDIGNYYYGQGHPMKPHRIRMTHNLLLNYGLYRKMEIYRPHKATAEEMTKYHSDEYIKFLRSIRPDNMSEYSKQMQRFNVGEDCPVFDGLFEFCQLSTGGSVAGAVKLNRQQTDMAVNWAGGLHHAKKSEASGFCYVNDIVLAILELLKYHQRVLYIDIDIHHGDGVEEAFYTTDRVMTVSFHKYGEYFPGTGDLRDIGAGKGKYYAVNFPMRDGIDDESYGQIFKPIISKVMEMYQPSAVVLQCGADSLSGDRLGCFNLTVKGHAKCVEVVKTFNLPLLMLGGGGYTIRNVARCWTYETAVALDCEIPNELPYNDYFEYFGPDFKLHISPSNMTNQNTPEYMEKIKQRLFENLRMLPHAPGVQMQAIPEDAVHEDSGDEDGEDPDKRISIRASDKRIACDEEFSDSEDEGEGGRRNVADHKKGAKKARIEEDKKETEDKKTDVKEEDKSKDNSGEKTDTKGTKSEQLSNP
A short description of data set [3]: Toxicity against silicosis C57BL/6J mouse model assessed as uric acid level in serum at 50 mg/kg, ig administered daily via gavage and measured on day 28. Type of data set: organism-based. Particulars: in vivo, po, 672 h, time 28 day.
Data set [4] deals with Mus musculus. Briefly: Anti-pulmonary fibrosis activity in bleomycin-induced idiopathic pulmonary fibrosis C57BL/6J mouse model assessed as decrease in collagen I protein expression in lung at 50 mg/kg, ig administered daily via gavage measured after 14 days by western blot analysis. Particulars: time 14.0 day. Type of data set: functional, organism-based.
Data set [5] has as its target T3, Protein deacetylase HDAC6 (Homo sapiens) (UniProt Q9UBN7).
T3 sequence (whole entry): T2 sequence (Q9UBN7 whole entry)
Briefly: Inhibition of HDAC6 in human RPMI-8226 cells assessed as increase in acetylated histone H4 level at 1 uM incubated for 24 hrs by western blot analysis. Type of data set: cell-based.

In data set [6] the test system is Mus musculus. Briefly: Anti-pulmonary fibrosis activity in bleomycin-induced idiopathic pulmonary fibrosis C57BL/6J mouse model assessed as decrease in lung damage by measuring decrease in collagen deposition in lungs at 25 to 50 mg/kg, ig administered daily via gavage and measured on day 14 by Masson's trichrome staining based analysis. Type of data set: functional, organism-based. Particulars: dose 25-50 mg/kg, time 14.0 day.

For the next data set, the system named is RPMI-8226. Description: Increase in DR5 protein expression in human RPMI-8226 cells incubated for 24 hrs by western blot analysis. Particulars: dose 0.25-1 µM. Type of data set: functional, cell-based.

The term inhibition denotes how much of the control response was suppressed. By IC50 is commonly meant the concentration at which inhibition is half-maximal. Regarding `O=C(NO)c1ccc(CN2C(=O)C3=C(CCN(Cc4cccc(Cl)c4)C3)N3CCN=C23)cc1`, the inhibition result in data set [1] is “Active; Levels Lower Than The Positive Control, Acy-1215”; on Histone deacetylase 2, 61.8%; in data set [5], “Active; Intensity Of Increase Slightly Lower Than Positive Drug, Acy-1215”. Also, the half-inhibitory concentration (IC50) came out at 890 nM in the data set with NIH3T3 and 42.9 nM in data set [2]. In addition, the Activity result was “Non-toxic” in data set [3]; “Active; Superior Activity Compared To Positive Drug, Acy-1215” in the data set with Mus musculus [4]; “Dose-dependent-effect; Higher Activity Compared To Positive Drug, 1 Um Compound Iic, Chidamide, Acy-1215” in the data set with RPMI-8226. In the data set with Mus musculus [6], the outcome was Active.
